Where “and” joins values, the source holds several entries; their conditions need not be identical. Equal values may be shown once. Entries after “also recorded” stand apart in the source; their conditions may differ. Read-outs that look alike come from different tables or passages of the source.
What was measured:
Format in all cases: cell-based, human
PGI2 synthesis in HUVEC = experiment: PGI2 assay (radioimmunoassay of 6-keto-PGF1a) in HUVEC; settings: for mean fold increase in 6-keto PGF1a above control unstimulated level: 60 min, 60 ng/ml PIGF, 1 U/ml thrombin
Description: (§1) Cell Culture: HUVECs were obtained either from Clonetics and cultured in the manufacturer's own medium supplemented with 2% FBS, or were grown from fresh umbilical cords by collagenase digestion and cultured on 1% gelatin-coated plates in medium 199 supplemented with 20% FCS and endothelial cell growth supplement (Wheeler-Jones et al, Biochem. J. (1996) 315:407-416). For experimental purposes, primary cultures of HUVEC were dispersed by treatment with 0.05% trypsin/0.02% EDTA for 5 min at 37° C. and then replated in either 90 mm, 60 mm or 35 mm plastic dishes, or onto 24-well plates. Cultures were maintained in a humidified atmosphere containing 5% CO2 and […] at 37° C. and used after 6-8 days or when the cells had formed a confluent monolayer. […] The PGI2 content of cell supernatants was quantified by radioimmunoassay of 6-keto-PGF1a, the stable breakdown product of PGI2 as previously described (Wheeler-Jones et al, supra). Arachidonic Acid Release: Arachidonic acid release was determined essentially as described (Domin and Rozengurt, J. Biol. Chem. (1993) 268:8927-8934.). Confluent HUVEC cultures were incubated for 24 h with [5,6,8,9,11,12,14,15-^3H]arachidonic acid (1 mCi/ml, 211 Ci/mmol). […] After treatment, the medium was removed, centrifuged in a microcentrifuge at 16,000×g for 5 min, and the radioactivity in the supernatant was determined by counting in a scintillation counter. Western Blotting Procedures: Treatment of quiescent cultures of cells with factors, and cell lysis were performed as described above and in the Results and Figure Legends. After SDS-PAGE, proteins were transferred to Immobilon membranes (Millipore Inc.). For MAP kinase assays, membranes were blocked using 5% non-fat dried milk in PBS, pH 7.2, and incubated for 3-5 h in PBS/0.05% Tween-20 containing primary antibody (1 mg/ml) as indicated. For immunoblots with antibody to cPLA2, membranes were blocked for 3 h in TBST50 mM Tris/HCl, 150 mM NaCl, 0.02% (v/v) Tween 20 pH 7.4 (TBST) containing 0.2% (w/v) 1-block (Tropix), then incubated with primary antiserum in TBST. Membranes were then washed six times (10 min each wash) in TBST and incubated for 1 hour in TBST containing HRP-conjugated secondary antibody. Immunoreactive bands were visualized by chemiluminescence using HRP-conjugated anti-mouse or anti-rabbit IgG and ECL™ reagent according to the manufacturers instructions. MAP Kinase Assay: Cells were treated with factors as indicated, washed rapidly twice with ice-cold PBS and immediately extracted by the addition of […] boiling 2×SDS-PAGE sample buffer. Cell extracts were collected by scraping, heated to 95° C. for 10 min and run on 12.5% acrylamide SDS-PAGE gels. Following transfer to Immobilon membranes, proteins were immunoblotted with an antibody which specifically recognizes p42 and p44 MAP kinases (Erk-1 and Erk-2) activated by phosphorylation at Tyr204 (Payne e al, EMBO J. (1991) 10:885-892.). cPLA2 Mobility Shift Assay: Confluent quiescent HUVECs in 60 mm dishes were washed twice in serum-free medium 199 (pH 7.4) and subsequently exposed, for the times indicated, to medium containing factors as detailed in the Figure legends. Cell lysates were prepared as previously described (Wheeler-Jones et al, supra). Proteins were separated by SDS-PAGE (10% acrylamide) and after transfer to membranes were immunoblotted with polyclonal anti-serum to cPLA2 (BorschHaubold et al, J. Biol. Chem. (1995) 270: 25885-25892; and Kramer et al, J. Biol. Chem. (1996) 271:27723-27729). Assay of vWF Secretion: vWF secretion was measured by ELISA (Wheeler-Jones et al, supra) in samples of medium obtained from confluent cultures of HUVECs which had been treated with factors, as indicated. Plates were coated with the anti-vWF mAb CLBRAg35, and the lower detection limit of the assay was approximately 1.0 mU/ml. Materials: Recombinant VEGF was obtained either from UBI or from R & D Systems. […]

cPLA2 = cPLA2 mobility shift assay in HUVEC; parameters: effect of PD98059 on VEGF-stimulated increase in slow-migrating cPLA2: dose or concentration left out as unconfirmed
Description: as §1

vWF secretion by HUVECs = experiment: vWF secretion by ELISA in HUVEC; parameters: effect of PD98059 on VEGF-induced vWF secretion: dose or concentration left out as unconfirmed
Description: as §1

p42/p44 MAP kinases = experiment: MAP kinase assay (phospho-p42/p44 immunoblot) in HUVEC; parameters: inhibition of VEGF-stimulated MAP kinase activity: dose or concentration left out as unconfirmed
Description: as §1

[1] = test system: 205 kD protein corresponding to VEGF receptor; experiment: Anti-phosphotyrosine immunoprecipitation/immunoblot in HUVEC; settings: HUVEC
Description: In some experiments, cells were pretreated for 1 h with 100 μM L-NAME and subsequently treated either with or without. […] The medium was removed and cells were rapidly lysed at 4° C. by addition of 10 mM Tris/HCl (pH 7.6), 5 mM EDTA, 50 mM NaCl, 30 mM sodium pyrophosphate, 50 mM NaF, 0.1 mM Na3VO4, 1 mM PMSF and 1% Triton X-100 (lysis buffer). Lysates were clarified by centrifugation at 15000×g for 10 min, and immunoprecipitations were performed by incubating clarified lysates with PY20 anti-phosphotyrosine mAb for 2 h at […] Immunoprecipitates were collected by incubating lysates for a further 1 hour with protein A-agarose. Immunoprecipitates were washed three times with lysis buffer and proteins were then extracted with 2×SDS-PAGE sample buffer. After SDS-PAGE, immunoprecipitated proteins were transferred to membranes and then immunoblotted with PY20 mAb.

NO production in HUVEC = experiment: Nitrite (NO) production in HUVEC, capillary detection method
Description: Nitrite production was measured using capillary detection method (Leone et al, in Methods in Nitric Oxide Research, Feelisch and Stanler, eds. John Wiley & Sons, New York (1996) 499-508).

[2] = test system: arachidonic acid release in HUVEC; experiment: Arachidonic acid release from prelabelled HUVEC
Description: as §1

HUVECs = experiment: Migration of HUVECs in chemotaxis chambers; settings: PIGF 5-60 ng/ml

COc1cccc(-c2cc(=O)c3ccccc3o2)c1N [PD98059, reference compound]
concentration of maximum inhibitory effect on stimulated PGI2 production (PGI2 synthesis in HUVEC): 10 µM
effect of PD98059 on VEGF-induced PGI2 production (PGI2 synthesis in HUVEC; 30 mM PD98059 30 min pretreatment, 25 ng/ml VEGF 60 min): completely inhibited; also recorded: complete inhibition
effect of PD98059 on thrombin-induced PGI2 production (PGI2 synthesis in HUVEC; 30 mM PD98059 30 min pretreatment, 1 U/ml thrombin 60 min): completely inhibited
inhibitor concentration at which PGI2 production fell below control values (PGI2 synthesis in HUVEC; VEGF-treated cells): greater than 10 mM
PGI2 production in control, unstimulated cells (PGI2 synthesis in HUVEC; basal): abolished
effect of PD98059 on VEGF-stimulated increase in slow-migrating cPLA2 (cPLA2): completely blocked; also recorded: complete inhibition
effect of PD98059 on VEGF-induced vWF secretion (vWF secretion by HUVECs): neither prevented nor significantly reduced; also recorded: no effect
effect of PD98059 on basal or thrombin-stimulated vWF secretion (vWF secretion by HUVECs): no effect
concentration reducing MAP kinase activity to control, unstimulated level (p42/p44 MAP kinases): 10 to 20 mM
inhibition of VEGF-stimulated MAP kinase activity (p42/p44 MAP kinases): greater than 50%
effect of PD98059 on VEGF stimulation of p42/p44 MAP kinases (p42/p44 MAP kinases; 30 min pretreatment): completely inhibited; also recorded: complete inhibition

VEGF
concentration range inducing tyrosine phosphorylation of 205 kDa protein [1]: 1 to 25 ng/mL
time for which NO production was sustained (NO production in HUVEC): up to 2 hours
half-maximal effect on NO production (NO production in HUVEC; HUVEC, nitrite levels): 5 ng/mL
nitrite production level (NO production in HUVEC; VEGF 2.5 ng/ml, 10 minutes (first of two levels)): ~19 µM
nitrite production level (NO production in HUVEC; VEGF 25 ng/ml for times up to 2 h): 1.8 to 2 µM
nitrite production level (NO production in HUVEC; VEGF 25 ng/ml, 10 minutes (second of two levels)): ~2.1 µM
earliest time effect on NO production seen (NO production in HUVEC; after addition of VEGF): 30 s
time of maximum NO production (NO production in HUVEC; after addition of VEGF): 5 min
time for which PGI2 production was sustained (PGI2 synthesis in HUVEC): up to 2 h
time up to which PGI2 production continued to increase (PGI2 synthesis in HUVEC): up to 60 min
PGI2 synthesis at 25 ng/ml (PGI2 synthesis in HUVEC; 25 ng/ml VEGF): small decline
mean fold increase in 6-keto PGF1a above control unstimulated level (PGI2 synthesis in HUVEC; 25 ng/ml VEGF): 2.0 fold and 2 fold
concentration at which increase in PGI2 synthesis was detectable (PGI2 synthesis in HUVEC; 60 min incubation): 5 ng/mL
concentration of maximum PGI2 synthesis (PGI2 synthesis in HUVEC; 60 min incubation): 15 ng/mL
half-maximal PGI2 synthesis (PGI2 synthesis in HUVEC; 60 min incubation): 10 ng/mL
concentration of maximum arachidonic acid release [2]: 10 to 20 ng/mL
half-maximum effect on arachidonic acid release [2]: 2.5 to 5 ng/mL
mean increase in release of labelled arachidonic acid above basal unstimulated level [2]: 1.6 fold
time at which arachidonic acid release was evident [2]: 10 min
time of half-maximum arachidonic acid mobilization [2]: 10 min
time of maximum arachidonic acid release [2]: 30 min
cPLA2 mobility shift (in words) (cPLA2): marked increase in the immunoreactivity of the slow-migrating form
concentration giving noticeable increase in slow-migrating cPLA2 (cPLA2): 2.5 ng/mL
concentration of maximum increase in slow-migrating cPLA2 (cPLA2): 5 to 10 ng/mL and 5 ng/mL
time at which cPLA2 shift to slow-migrating form was detectable (cPLA2; VEGF 25 ng/ml): 2 min
time for which cPLA2 shift was sustained (cPLA2; VEGF 25 ng/ml): up to 60 min
time of maximum cPLA2 shift (cPLA2; VEGF 25 ng/ml): 15 min
vWF secretion (in words) (vWF secretion by HUVECs): comparable to, though consistently weaker than, that of thrombin
vWF level above control cells (vWF secretion by HUVECs; 25 ng/ml VEGF, 3 h): 2.5 fold
concentration of maximum effect on vWF secretion (vWF secretion by HUVECs; highest concentration tested): 25 ng/mL
concentration of maximum MAP kinase activation (p42/p44 MAP kinases; 15 min exposure): 10 ng/mL and 5 to 10 ng/mL
concentration up to which maximum MAP kinase effect was sustained (p42/p44 MAP kinases; 15 min exposure): up to 50 ng/ml
chemotaxis of HUVECs (HUVECs): concentration-dependent increase in chemotaxis

thrombin [reference compound]
mean fold increase in 6-keto PGF1a above control unstimulated level (PGI2 synthesis in HUVEC; 25 ng/ml VEGF): 4.4 fold
mean increase in release of labelled arachidonic acid above basal unstimulated level ([2]; four independent experiments): 3.4 fold
cPLA2 mobility shift (in words) (cPLA2): striking shift

B1: PIGF: VEGF-related factor, a specific ligand for the Flt-1 VEGF receptor; recombinant (protein)
chain: AVPPQQWALSAGNGSSEVEVVPFQEVWGRSYCRALERLVDVVSEYPSEVEHMFSPSCVSLLRCTGCCGDENLHCVPVETANVTMQLLKIRSGDRPSYVELTFSQHVRCECRPLREKMKPERCGDAVPRR
mean fold increase in 6-keto PGF1a above control unstimulated level (PGI2 synthesis in HUVEC; 25 ng/ml VEGF): 1.3 fold
arachidonic acid release (in words) ([2]; prelabelled HUVECs): no detectable significant increase
cPLA2 mobility shift (in words) (cPLA2): no detectable shift
vWF secretion (in words) (vWF secretion by HUVECs): no detectable stimulation
MAP kinase activity (in words) (p42/p44 MAP kinases; PIGF 1-60 ng/ml): little, if any, detectable increase; also recorded: little effect
chemotaxis of HUVECs (HUVECs): no detectable increase
